d = 2'-deoxy (DNA); r = 2'-OH (RNA)
Legend:
[1] = target: estrogen receptor-α (ERα) (Homo sapiens, UniProt P03372); conditions: cells null for either MEKK1 or TAB2
Text: Wild-type MEKK1, C478A MEKK1 (mutant of ubiquitin ligase activity), or D1369A MEKK1 (mutant of kinase activity) was used to rescue IL-1β-dependent activation of the pS2 promoter by 4-OHT in MEFs from MEKK−/− mice.

androgen receptor (AR) [2] = target: T1, androgen receptor (AR) (Homo sapiens, UniProt P10275); assay: ARE-dependent lacZ reporter, single cell nuclear microinjection; format: cell-based; conditions: presence of bicalutamide
T1 construct: Nuclear microinjection studies were performed in RWPE1 cells using a Prostate Specific Antigen (PSA) promoter/reporter construct; endogenous in cells; host or cells: RWPE1 prostate cells
T1 sequence (P10275 1-920): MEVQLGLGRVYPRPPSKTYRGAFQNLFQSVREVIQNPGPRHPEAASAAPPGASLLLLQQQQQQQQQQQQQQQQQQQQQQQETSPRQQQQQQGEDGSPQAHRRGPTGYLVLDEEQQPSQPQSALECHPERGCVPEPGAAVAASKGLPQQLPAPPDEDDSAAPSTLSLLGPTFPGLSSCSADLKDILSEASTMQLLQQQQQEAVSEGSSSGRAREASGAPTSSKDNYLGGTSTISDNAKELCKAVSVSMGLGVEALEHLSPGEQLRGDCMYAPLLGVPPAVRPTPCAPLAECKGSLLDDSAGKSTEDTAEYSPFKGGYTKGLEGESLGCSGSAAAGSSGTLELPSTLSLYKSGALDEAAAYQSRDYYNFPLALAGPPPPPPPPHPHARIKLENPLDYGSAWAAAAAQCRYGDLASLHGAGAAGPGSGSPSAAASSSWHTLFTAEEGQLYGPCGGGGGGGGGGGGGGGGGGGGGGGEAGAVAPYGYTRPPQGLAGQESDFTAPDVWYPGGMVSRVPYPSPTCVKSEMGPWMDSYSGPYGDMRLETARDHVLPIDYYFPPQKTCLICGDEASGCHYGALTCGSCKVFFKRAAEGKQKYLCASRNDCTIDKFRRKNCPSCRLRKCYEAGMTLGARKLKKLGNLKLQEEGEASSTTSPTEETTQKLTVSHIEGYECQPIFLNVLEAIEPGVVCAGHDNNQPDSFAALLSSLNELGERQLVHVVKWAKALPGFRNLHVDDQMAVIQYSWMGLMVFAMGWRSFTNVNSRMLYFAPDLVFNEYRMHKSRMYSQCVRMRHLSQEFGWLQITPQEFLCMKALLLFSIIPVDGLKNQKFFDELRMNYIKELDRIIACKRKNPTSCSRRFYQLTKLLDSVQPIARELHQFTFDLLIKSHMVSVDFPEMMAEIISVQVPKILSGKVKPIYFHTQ
Protocol: Specific IgGs against AR, N-CoR, TAB2, HDAC3, HDAC2, HDAC1, Sin3, or MBD3 were used to immunoprecipitate protein-bound DNA fragments. […] The bound material was eluted and divided into several aliquots, and re-immunoprecipitated with antibodies as shown (2nd IP).
Cells were stained with antibodies directed against the N-CoR, and the fluorescence-conjugated secondary antibody was visualized using deconvoluting microscopy. Merged images with nuclear staining with DAPI are shown. […] 5 ng/ml of leptomycin B (LMB), a nuclear export inhibitor, was also used for 30 min followed by treatment with 10 ng/ml of IL-1β.

[3] = tested on: RARα fusion proteins (AR-N′/RAR, ER-N′/RAR); assay: RARα-dependent reporter with AR-N'/RAR and ER-N'/RAR fusion receptors, single cell microinjection; format: cell-based
BMP7 = assay: Semi-quantitative RT-PCR of BMP7 in MCF-7 breast cancer cells; format: cell-based; conditions: MCF-7 cells
Protocol: Semi-quantitative RT-PCR was carried out as described (Zhu et al, 2004). Primers were: […]
(§1) Actin was used as the loading control. […] A BMP7 promoter-controlled LacZ reporter and an ERα expression plasmid were injected into cells. […] Wild-type ERα and Erα (E203A/G204A) were cotransfected with the reporter in 293 cells. […] Primer pair #1 flanks two putative ERE half-sites, and primer pair #2 (control) flanks a region ˜3 kb upstream of #1.
This is particularly relevant in light of the fact that a key aspect of reproductive regulation, blastocyst implantation, involves a local induction of BMP7 in response to inflammatory signals (Monroe et al., 2000; Paria et al., 2001).

androgen receptor (AR) [4] = target: T1, androgen receptor (AR); assay: PSA promoter reporter, single cell nuclear microinjection in RWPE1 cells; format: cell-based; conditions: for effect on IL-1β-mediated activator function of bicalutamide: 14mer peptide microinjected, PSA promoter- or ARE-dependent reporters
Text: One representative of three independent experiments is shown.

ERα [5] = target: T2, ERα (Homo sapiens, UniProt P03372); assay: Luciferase reporter driven by human BMP7 proximal promoter in 293 cells; format: cell-based; parameters: expressed in transfected cells; host or cells: 293 cells; conditions: combination of E2 and IL-1β
T2 sequence (P03372 1-595): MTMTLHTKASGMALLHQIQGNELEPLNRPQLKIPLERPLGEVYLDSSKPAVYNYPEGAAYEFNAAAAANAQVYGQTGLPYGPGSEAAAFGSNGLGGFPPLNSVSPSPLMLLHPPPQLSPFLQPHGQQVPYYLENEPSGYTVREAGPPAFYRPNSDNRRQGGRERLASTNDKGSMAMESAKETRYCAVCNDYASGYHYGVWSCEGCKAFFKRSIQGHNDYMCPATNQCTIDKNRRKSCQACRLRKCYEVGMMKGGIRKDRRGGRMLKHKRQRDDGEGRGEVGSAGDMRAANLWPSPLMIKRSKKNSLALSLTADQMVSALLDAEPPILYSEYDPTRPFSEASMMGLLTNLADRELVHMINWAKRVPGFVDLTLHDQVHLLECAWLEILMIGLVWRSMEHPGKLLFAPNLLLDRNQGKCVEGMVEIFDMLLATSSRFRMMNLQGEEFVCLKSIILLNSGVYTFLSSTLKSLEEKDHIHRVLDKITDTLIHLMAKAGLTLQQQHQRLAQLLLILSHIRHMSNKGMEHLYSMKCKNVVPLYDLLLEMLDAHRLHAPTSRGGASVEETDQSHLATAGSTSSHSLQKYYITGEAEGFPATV
Protocol: as §1

ERα [6] = target: T2, ERα; assay: BMP7 promoter-controlled LacZ reporter, single cell nuclear microinjection in Rat-1 cells; format: cell-based; parameters: expressed in transfected cells; host or cells: Rat-1 cells; conditions: added to E2
Protocol: as §1

endogenous TAB2 = target: T3, endogenous TAB2 (UniProt Q9NYJ8 1-693); assay: 2-step ChIP co-occupancy
T3 construct: Endogenous protein, detected with anti-TAB2 IgG
T3 sequence (looked up): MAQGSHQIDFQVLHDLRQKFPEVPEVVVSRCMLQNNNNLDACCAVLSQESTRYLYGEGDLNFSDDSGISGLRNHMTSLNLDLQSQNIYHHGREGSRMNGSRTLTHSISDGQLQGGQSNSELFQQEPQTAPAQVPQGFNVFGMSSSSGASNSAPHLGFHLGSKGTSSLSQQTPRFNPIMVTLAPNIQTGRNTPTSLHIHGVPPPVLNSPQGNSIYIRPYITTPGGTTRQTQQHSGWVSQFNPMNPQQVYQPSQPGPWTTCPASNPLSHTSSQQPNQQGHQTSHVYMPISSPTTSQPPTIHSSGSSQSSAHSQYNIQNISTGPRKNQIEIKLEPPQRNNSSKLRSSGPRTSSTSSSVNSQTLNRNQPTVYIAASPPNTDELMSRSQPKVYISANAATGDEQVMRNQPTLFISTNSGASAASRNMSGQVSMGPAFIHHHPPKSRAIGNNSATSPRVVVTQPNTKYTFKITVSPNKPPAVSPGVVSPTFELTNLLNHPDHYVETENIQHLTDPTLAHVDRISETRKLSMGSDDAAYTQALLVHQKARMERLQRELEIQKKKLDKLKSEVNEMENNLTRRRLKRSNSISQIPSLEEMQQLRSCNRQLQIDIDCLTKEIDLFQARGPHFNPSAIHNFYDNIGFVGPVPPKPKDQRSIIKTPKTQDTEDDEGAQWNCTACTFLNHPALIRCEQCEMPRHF

Molecule: 4-OH tamoxifen [4-OHT]
- IL-1β-dependent conversion to activator of ERα [1]: failed to occur

Molecule: 5′-GCACCGAAGUAUUGUCCAAdTdT-3′ (sense GCACCGAAGUAUUGUCCAATT; antisense UUGGACAAUACUUCGGUGCTT; siRNA; sugars from the 5' end r19 d2, backbone not given here) [N-CoR siRNA]
- effect on bicalutamide-dependent repression of ARE reporter (androgen receptor (AR) [2]): switch from repression to activation

Molecule: C[C@]12CCC(=O)C[C@@H]1CC[C@@H]1[C@@H]2CC[C@]2(C)[C@@H](O)CC[C@@H]12 [DHT, Dihydrotestosterone]
- activation of chimeric RARα [3]: neither E2 nor DHT exerted activation effects

Molecule: C[C@]12CC[C@@H]3c4ccc(O)cc4CC[C@H]3[C@@H]1CC[C@@H]2O [E2, 17-β-estradiol]
- activation of chimeric RARα [3]: neither E2 nor DHT exerted activation effects
- BMP7 transcript levels (BMP7): decreased levels of BMP7 transcripts

Molecule: DIASEASTMQAAQQ [mutated AX7AA (SEQ ID NO:26) sequence]
- effect on IL-1β-mediated activator function of bicalutamide (androgen receptor (AR) [4]): failed to inhibit induction

Molecule: DILSEASTMQLLQQ [14mer synthetic peptide encompassing the AR LX7LL motif]
- effect on IL-1β-mediated activator function of bicalutamide (androgen receptor (AR) [4]): specifically blocked
- effect on macrophage-induced agonistic switch of bicalutamide (androgen receptor (AR) [4]; peptide microinjected into RWPE1 cells pre-treated with TNFα, THP-1 macrophages, PSA promoter-dependent reporter): blocked

Molecule: IL-1β: human IL-1β from Calbiochem, pro-inflammatory cytokine
- hBMP7 proximal promoter reporter activity, combination with E2 (ERα [5]): restored the reporter activity to the baseline
- effect on E2 inhibition of BMP7 transcripts (BMP7; added to E2): blocked this inhibition
- expression of hBMP-7 promoter-controlled reporter on addition to E2 (ERα [6]): actively increased expression over the baseline

B1: wild-type RARα (receptor, UniProt P10276 1-462, looked up)
chain: MASNSSSCPTPGGGHLNGYPVPPYAFFFPPMLGGLSPPGALTTLQHQLPVSGYSTPSPATIETQSSSSEEIVPSPPSPPPLPRIYKPCFVCQDKSSGYHYGVSACEGCKGFFRRSIQKNMVYTCHRDKNCIINKVTRNRCQYCRLQKCFEVGMSKESVRNDRNKKKKEVPKPECSESYTLTPEVGELIEKVRKAHQETFPALCQLGKYTTNNSSEQRVSLDIDLWDKFSELSTKCIIKTVEFAKQLPGFTTLTIADQITLLKAACLDILILRICTRYTPEQDTMTFSDGLTLNRTQMHNAGFGPLTDLVFAFANQLLPLEMDDAETGLLSAICLICGDRQDLEQPDRVDMLQEPLLEALKVYVRKRRPSRPHMFPKMLMKITDLRSISAKGAERVITLKMEIPGSMPPLIQEMLENSEGLDTLSGQPGGGGRDGGGLAPPPGSCSPSLSPSSNRSSPATHSP
notes: also called retinoic acid receptor
- binding result (endogenous TAB2): no binding

From patent US20080269106A1, “Methods and Compositions for Diagnosis and Treatment of Disorders Involving Macrophages” (priority 2005, published 2008)
